{"source": "patent US4138590A", "about": "“Prostaglandin derivatives” (American Home Products Corporation, priority 1977, dated 1979)", "key": {"Human blood platelets": {"test_system": "Human blood platelets", "test": "Blood Platelet Aggregation (ADP induced, modification of Born and Cross)", "format": "cell-based", "conditions": "human PRP, ADP 2-4 μM", "method": "Reference: Modification of Born, G.V.R., and Cross, M. J., J. Physiol., 168, 178-195 (1963).\nTest Object: Human blood platelets.\nProcedure: Platelet aggregation is the initial step in thrombus formation and it is considered that compounds which prevent aggregation or reduce platelet adhesiveness may inhibit the initiation of the arteriosclerotic process. The effect of drugs on aggregation is measured in platelet rich plasma (PRP) containing adenosine diphosphate (ADP) which markedly increases aggregation in vitro and may be a physiological agent for doing so in vivo.\nHuman blood is collected from fasted normal blood donors in siliconized 50 ml. Vacutainers that contain 3.8% sodium citrate. Centrifugation at 500 g. for 3 minutes at 5° C. separates the red blood cells from the PRP. The supernatant PRP is pipetted off and the remainder is centrifuged at 1000 g. for 10 minutes at 25° C. to obtain platelet poor plasma for standarization of the automated Payton aggregometer. In the running of the platelet aggregation test a cell containing 1.0 ml. of PRP is stirred at 1,100 rpm and the test compound is added in 0.2 ml. of buffered saline to give an initial concentration of 5 × 10^-3 M, or 5 × 10^-4 M. After 3 minutes, a concentration of ADP predetermined to yield marked platelet aggregation (2 to 4 μM) is added in 0.1 ml. of buffered saline. The curve of light transmission at 610 mμ is followed for 6 minutes. Compounds found to be active at the initial concentration are run at lower concentrations.\nStandard Compound: 2-4 μM ADP-Reference Compound."}, "[1]": {"test_system": "bronchoconstricting effects of a standard dose of acetylcholine", "test": "Evaluation of Bronchodilator Activity (aerosol inhalation, method of Rosenthale et al.)", "format": "in vivo", "conditions": "guinea pig, acetylcholine i.v. dose producing ca. 30% bronchoconstriction", "description": "In using the compounds of the invention to produce bronchodilating effects in warm-blooded animals, they may be administered in a variety of dosage forms: oral, injectable, and aerosol inhalation. Aerosol inhalation is a preferred method because of its rapid onset of action, great potency, and specificity of action. The particular dosage to obtain the bronchodilating effect will vary with the particular compound employed, the particular animal involved, and the degree of bronchodilation desired. In the guinea pig, by aerosol inhalation, the dose to produce bronchodilation is from about 0.15 micrograms to about 25 micrograms, and preferably from about 0.15 to about 15 micrograms. The bronchodilation produced upon aerosol inhalation can be observed by the method of Rosenthale et al., J. Pharmacol. Exp. Ther., 178, 541 (1971). Using this procedure the following results were obtained:\n*The dose (i.v.) of acetylcholine which produces a ca. 30%"}}, "data": [{"smiles": "CCCCC[C@H](O)/C=C/[C@H]1C(=O)C=C(c2ccccc2)[C@@H]1C/C=C\\CCCC(=O)O", "note": "[7-{2β-[(3S)-3-Hydroxy-trans-1-Octenyl]-3-Oxo-5-Phenyl-4-Cyclopenten-1α-yl}-cis-5-Heptenoic Acid]", "values": [{"measurement": "inhibition at 18 µM", "setting": "Human blood platelets; concentration 1.8 × 10^-5 M", "value": 22, "unit": "%"}]}, {"smiles": "C#CC1=CC(=O)[C@H](/C=C/[C@@H](O)CCCCC)[C@H]1C/C=C\\CCCC(=O)O", "note": "[7-{5β-[(3S)-3-Hydroxy-trans-1-Octenyl]-2-Ethynyl-4-Oxo-2-Cyclopenten-1α-yl}-cis-5-Heptenoic Acid]", "values": [{"measurement": "inhibition at 22 µM", "setting": "Human blood platelets; concentration 2.2 × 10^-5 M", "value": 36, "unit": "%"}]}, {"smiles": "CCCCC[C@H](O)/C=C/[C@H]1C(=O)C=C(C)[C@@H]1C/C=C\\CCCC(=O)O", "note": "[7-{5β-[(3S)-3-Hydroxy-trans-1-Octenyl]-2-Methyl-4-Oxo-2-Cyclopenten-1α-yl}-cis-5-Heptenoic Acid]", "values": [{"measurement": "inhibition at 0.0057 µM", "setting": "Human blood platelets; concentration 5.7 × 10^-9 M", "value": 56, "unit": "%"}, {"measurement": "% Inhibition of the Bronchoconstricting effects of a standard dose of acetylcholine", "setting": "[1]; dose 1.5 μg", "value": 36, "unit": "%"}, {"measurement": "% Inhibition of the Bronchoconstricting effects of a standard dose of acetylcholine", "setting": "[1]; dose 15 μg", "value": 78, "unit": "%"}]}]}
